Reference: article PMC5428013, “Peptide-Au Clusters Induced Tumor Cells Apoptosis via Targeting Glutathione Peroxidase-1: The Molecular Dynamics Assisted Experimental Studies” (Scientific Reports, 2017)
“Also recorded” adds a separate entry of the source.

What was measured:
GPx-1 [1] = assay: GPx-1 enzyme activity suppression in buffer; type: biochemical, bovine; conditions: 10 min
Description: The peptides (N2H-CCYGGPEEEEEVG-COOH (named P1), NH2-CCYGGPDDDEDVG-COOH (named P2) and NH2-CCYGGPEEVEEVG-COOH (named P3)) were chemically synthesized by a solid phase method (China Peptides Co. Ltd, Purity: 98%). Hydrogen tetrachloroaurate (III) (HAuCl4·4H2O) was purchased from Sinopharm Chemical Reagent Co. Ltd. Sodium hydroxide (NaOH), nitric acid (HNO3), hydrochloric acid (HCl) and hydrogen peroxide (H2O2) were purchased from Beijing Chemical Reagent Co., China. Human non-small cell lung carcinoma cells (A549 cells), Henrietta Lacks strain of cancer cells (Hela cells) and human colon adenocarcinoma cells (HCT-8 cells) were from Cancer Institute and Hospital, Chinese Academy of Medical Sciences. Fetal bovine serum (FBS) and trypsin-EDTA were obtained from Gibco, USA. Penicillin-streptomycin solution, cell culture medium DMEM and RPMI 1640 were purchased from Hyclone. Hoechst 33342, LysoTracker®Green DND-26, and CM-H2DCFDA were from Molecular Probes, USA. NucView™ 488 Caspase-3 Assay Kit was bought from Biotium, USA. 5,5′,6,6′-tetrachloro-1,1′,3,3′-tetraethylbenzimidazolocarbocyanine iodide (JC-1), cell lysis buffer for Western and IP, phenylmethanesulfonyl fluoride (PMSF) and BCA Protein Assay Kit were obtained from Beyotime Institute of Biotechnology, China. Protease inhibitor cocktail tablets were from Roche Diagnostics, GmbH, Mannheim, Germany. Cell counting kit-8 (CCK-8) reagents and Annexin V-FITC/Propidium (PI) Apoptosis Detection Kit were purchased from Dojindo Laboratories, Japan. GPx from bovine erythrocytes […] was provided by Sigma Aldrich, USA. GPx Activity Colorimetric Assay Kit was provided by Biovision, USA. Anti-GPx-1 antibody was offered by Abcam, UK. PARP antibody, caspase-3 antibody and β-actin antibody were offered by Cell Signaling Technology, USA. Amicon ultra centrifugal filter devices (Merck Millipore, MWCO: 10 kDa) were used for purification steps. Ultrapure Millipore (Mini-Q) water (18.2 MΩ) was used throughout the experiments. […]
Pure GPx (lyophilized powder, ≥300 units/mg protein) were diluted by GPx sample buffer and incubated with peptide-Au clusters (Au25P1_9, Au25P2_9 and Au25P3_9) at a series of Au dose (0, 25, 100, 400 μM) for 10 min, respectively. […] The GPx activity of untreated samples was set as 100%, and that of peptide-Au clusters treated samples were expressed as a relative percentage of untreated ones.
Figure S12. Peptide-Au clusters treated GPx-1 activity measured in buffer solution. The decrease in NADPH absorbance measured at 340 nm during the oxidation of NADPH to NADP is the indicative of GPx activity,^1, 2 which is in a dose dependent manner in tube experiments when treated with serial doses of peptide-Au clusters.

A549 cells = assay: Cellular location observed by CLSM; type: cell-based, human; conditions: 800 µM Au, 48 h, live A549 cells
Protocol: A549 cells were seeded on glass-bottom dishes (35 mm, MatTek Corporation) for confocal laser scanning microscopy (CLSM) observation. After 24 h, Au25P1_9 was added to culture medium and the final Au dose was 800 µM. The A549 cells were next exposed to Au25P1_9 for 48 h. Then the cells were washed three times with PBS and incubated with 10 µg/mL Hoechst 33342 at 37 °C under darkness for 10 min. Before observation, the culture medium was discarded and the cells were washed three times with PBS, supplemented with fresh culture medium. Finally, in A549 cells, the cell nucleus and Au25P1_9 were imaged under Nikon Ti-e microscope with excitation at wavelengths of 405 nm and 560 nm, respectively. To identify the accurate location of Au25P1_9 in cytoplasm of A549 cells, lysotracker green, a lysosome probe, was added in the medium after cells were incubated with Au25P1_9 for 48 h. The cells were then observed by CLSM with excitation at wavelengths of 488 nm and 560 nm, respectively.

GPx-1 [2] = assay: GPx-1 expression in A549 cells, western blotting; type: cell-based, human; conditions: Au dose 0, 100, 200, 400, 800 μM, 48 h
Protocol: The expression of GPx-1, caspase-3 and PARP from Au25P1_9 treated A549 cells were analyzed by western blotting. A549 cells were prior seeded on 6-well plate (at the density of 1 × 10^5 cells/well) for 24 h. Then the medium was discarded and fresh culture medium with Au25P1_9 at different doses was added to make cells exposed to final Au doses at 0, 100, 200, 400 and 800 μM, respectively. After another 48 h incubation, the cells were harvested and lysed by cell lysis buffer for Western and IP (containing 20 mM Tris-HCl, pH7.5, 150 mM NaCl, 1% Triton X-100, sodium pyrophosphate, β-glycerophosphate, EDTA, Na3VO4 and leupeptin), protease inhibitor cocktail tablet and 1 mM PMSF for 15 min on a shaker at 4 °C. The lysed cells were collected and centrifuged for 15 min at 12,000 g to get total protein of cells. The protein dose of each sample was prior quantified, and then loading buffer was added. After boiling for 5 min, the protein samples with equal amount were separated on 12% SDS polyacrylamide gel electrophoresis and then transferred onto the polyvinylidene difluoride (PVDF) membrane. Membrane was blocked by 5% nonfat dried milk prepared in tris(hydroxymethyl)amin omethane-NaCl-Tween 20 (TBST) at room temperature for 1 h, and then incubated with primary antibodies specific to β-actin, Caspase-3, PARP and GPx-1 at 4 °C overnight, respectively. […]

caspase-3 = assay: Caspase-3 activity assay (Nucview488, CLSM); type: cell-based, human; conditions: 800 µM Au, 48 h, 5 µM Nucview488 substrate
Protocol: A549 cells were seeded on glass-bottom dishes for 24 h, and the Au25P1_9 was added to culture medium and final Au dose was 800 µM. A549 cells were next exposed to Au25P1_9 for 48 h. Then the cells were washed three times with PBS and incubated with 5 µM Nucview488 caspase-3 substrate (which can be cleaved by caspase-3 and release the DNA dye to stain DNA with bright green fluorescence during apoptosis) at room temperature for 30 min. Finally, cells were washed with PBS and observed by CLSM with excitation at wavelengths of 488 nm.

- GPx-1 activity (relative to untreated = 100%) (GPx-1 [1]; buffer, Au dose of 400 μM, GPx Activity Colorimetric Assay Kit, NADPH absorbance at 340 nm): 12%
- caspase-3 activation (caspase-3): strong Nucview488 emission
Sequence: CCYGGPEEEEEVG [Au25P1_9, Au25 cluster coated by nine P1 peptides (…)]
- GPx-1 activity suppression in buffer (GPx-1 [1]; Au dose 0, 25, 100, 400 μM): exhibits the best suppression capacity for GPx-1; also recorded: the most effective candidate for suppression of GPx-1 activity in buffer and cells
- cellular location (A549 cells): red emission can be observed in the cytoplasm of live A549 cells
- GPx-1 expression level (GPx-1 [2]): GPx-1 level remains stable
